From the OPERA property sets (Mansouri et al. 2018)

Compound `c1ccc2nn(C3CCCCC3)nc2c1` has a logP of 3.63.
With `CC(CCC(N)=O)n1nc2ccccc2n1` (centres undefined) the logP was 1.35.
In the case of `CC(CC(=O)O)n1nnc2ccccc21` (centres undefined), the logP is reported as -0.2.
With `CCCC(C(N)=O)n1nnc2ccccc21` (centres undefined) the logP was 1.38.
With `CCC(C(N)=O)n1nc2ccccc2n1` (centres undefined) the logP was 1.25.
In the case of `CCC(C(N)=O)n1nnc2ccccc21` (centres undefined), the logP is reported as 0.88.
Work on `CCCC(C(=O)OCC)n1nc2ccccc2n1` (centres undefined) yielded a logP of 3.38.
For `CC(C(N)=O)n1nc2ccccc2n1` (centres undefined), the logP was 0.86.
With `CCCC(C(=O)OCC)n1nnc2ccccc21` (centres undefined) the logP was 2.82.
Compound `CCCCC(C(=O)OCC)n1nnc2ccccc21` (centres undefined) has a logP of 3.32.
With `CC(C)(C(=O)O)n1nc2ccccc2n1` the logP was 0.64.
With `CC(CCC(=O)O)n1nnc2ccccc21` (centres undefined) the logP was 0.15.
Work on `CCCCC(C(=O)OCC)n1nc2ccccc2n1` (centres undefined) yielded a logP of 3.88.
`CCOC(=O)C(C)n1nnc2ccccc21` (centres undefined) gave a logP of 1.87.
`CCOC(=O)C(CC)n1nc2ccccc2n1` (centres undefined) gave a logP of 2.88.
Work on `CCCCC(C(N)=O)n1nc2ccccc2n1` (centres undefined) yielded a logP of 2.28.
Compound `c1ccc2c(c1)nnn2C1CCCC1` has a logP of 2.61.
`CCOC(=O)C(C)n1nc2ccccc2n1` (centres undefined) showed a logP of 2.38.
`CC(C)(C(=O)O)n1nnc2ccccc21` gave a logP of -0.2.
Compound `CCCC(C(N)=O)n1nc2ccccc2n1` (centres undefined) has a logP of 1.75.
Work on `CC(C)(C(N)=O)n1nc2ccccc2n1` yielded a logP of 1.16.
`CCOC(=O)C(CC)n1nnc2ccccc21` (centres undefined) gave a logP of 2.34.
In the case of `c1ccc2nn(C3CCCC3)nc2c1`, the logP is reported as 3.04.
In the case of `CCOC(=O)CC(C)n1nnc2ccccc21` (centres undefined), the logP is reported as 2.27.
For `c1ccc2c(c1)nnn2C1CCCCC1`, the logP was 3.11.
Compound `CC(C)(C(N)=O)n1nnc2ccccc21` has a logP of 0.76.
For `CCCCC(C(N)=O)n1nnc2ccccc21` (centres undefined), the logP was 1.88.
`CC(CCC(=O)O)n1nc2ccccc2n1` (centres undefined) gave a logP of 0.69.
In the case of `CCOC(=O)CC(C)n1nc2ccccc2n1` (centres undefined), the logP is reported as 2.7.
